Measured values reported in ChEMBL document CHEMBL1133713, “Novel 1,5-diphenylpyrazole nonnucleoside HIV-1 reverse transcriptase inhibitors with enhanced activity versus the delavirdine-resistant P236L mutant: lead identification and SAR of 3- and 4-substituted derivatives” (J Med Chem, 2000).
Counter-ions that a name gives are not always drawn.

Experiments:
[1] = test system: Human immunodeficiency virus type 1 reverse transcriptase (Human immunodeficiency virus 1), Q72547 [P236L]; experiment: In vitro inhibition of mutant P236L reverse transcriptase at a concentration of 1 uM.
[2] = test system: Human immunodeficiency virus type 1 reverse transcriptase (Human immunodeficiency virus 1), Q72547 [P236L]; experiment: In vitro inhibition of mutant P236L reverse transcriptase at a concentration of 10 uM.
[3] = test system: Human immunodeficiency virus type 1 reverse transcriptase (Human immunodeficiency virus 1), Q72547 [P236L]; experiment: In vitro Inhibition of mutant P236L reverse transcriptase at a concentration of 50 uM.
[4] = molecular target: Human immunodeficiency virus type 1 reverse transcriptase (Human immunodeficiency virus 1) (UniProt Q72547); experiment: In vitro inhibition of wild type resistant reverse transcriptase at a concentration of 10 uM.
[5] = molecular target: Human immunodeficiency virus type 1 reverse transcriptase (Human immunodeficiency virus 1) (UniProt Q72547); experiment: In vitro inhibition of wild type resistant reverse transcriptase at a concentration of 50 uM.
[6] = molecular target: Human immunodeficiency virus type 1 reverse transcriptase (Human immunodeficiency virus 1) (UniProt Q72547); experiment: In vitro inhibition of wild type resistant reverse transcriptase at a concentration of 1 uM.
[7] = Cytotoxic concentration was determined; assay type: functional
[8] = Effective dose for inhibition of viral replication in cell culture […]; assay type: functional; settings: read-out: ED50 (the source's name)
[9] = molecular target: Human immunodeficiency virus type 1 reverse transcriptase (Human immunodeficiency virus 1, UniProt Q72547, P236L); experiment: In vitro ability to inhibit mutant P236L reverse transcriptase
[10] = molecular target: Human immunodeficiency virus type 1 reverse transcriptase (Human immunodeficiency virus 1, UniProt Q72547); experiment: In vitro ability to inhibit wild type resistant (WT) reverse transcriptase

Structure (SMILES)	inhibition [1]	inhibition [2]	inhibition [3]	inhibition [4]	inhibition [5]	inhibition [6]	CC50 [7]	EC50 [8]	IC50 [9]	IC50 [10]
C/N=C(/S)c1c(C)nn(-c2ccccc2)c1-c1ccccc1	0%	0%	0%	0%	0%	0%	–	–	–	–
Cc1nn(-c2ccccc2)c(-c2ccccc2)c1CC#N	47%	77%	93%	71%	90%	37%	> 10000 nM	100 nM	1140 nM	2310 nM
CCc1c(CCOC)nn(-c2ccccc2)c1-c1ccccc1	15%	47%	71%	29%	33%	22%	–	–	–	–
CCc1c(CC(=O)O)nn(-c2ccccc2)c1-c1ccccc1	0%	13%	14%	0%	0%	0%	–	–	–	–
C=Cc1c(C)nn(-c2ccccc2)c1-c1ccccc1	21%	26%	59%	10%	18%	3.6%	–	–	–	–
CCc1c(CC#N)nn(-c2ccccc2)c1-c1ccccc1	14%	46%	72%	15%	39%	2%	–	–	–	–
Cc1nn(-c2ccccc2)c(-c2ccccc2)c1C	0%	3%	36%	0%	0%	0%	–	–	–	–
CC#Cc1c(C)nn(-c2ccccc2)c1-c1ccccc1	38%	80%	93%	37%	72%	0%	–	–	1540 nM	13400 nM
CCc1cc(NCc2nc3c(Cl)ccc(Cl)c3o2)c(O)nc1C [L-697661]	–	–	–	–	–	–	> 10000 nM	< 0.1 nM	–	–
Cc1nn(-c2ccccc2)c(-c2ccccc2)c1CCO	12%	8%	28%	0%	0%	0%	–	–	–	–
CCc1c(CCO)nn(-c2ccccc2)c1-c1ccccc1	58%	84%	95%	18%	42%	0%	–	–	650 nM	> 50000 nM
Cc1ccnc2c1NC(=O)c1cccnc1N2C1CC1 [NEVIRAPINE]	–	–	–	–	–	–	> 10000 nM	10 nM	–	–
Cc1nn(-c2ccccc2)c(-c2ccccc2)c1CC(=O)O	0%	0%	0%	0%	3%	0%	–	–	–	–
CCc1c(C)nn(-c2ccccc2)c1-c1ccccc1	50%	81%	94%	42%	67%	1%	–	–	520 nM	14500 nM
Cc1nn(-c2ccccc2)c(-c2ccccc2)c1CC(N)=O	0%	0%	29%	36%	48%	11%	–	–	–	–
CCCc1c(C)nn(-c2ccccc2)c1-c1ccccc1	4%	56%	71%	31%	49%	14%	–	–	–	–
Cc1nn(-c2ccccc2)c(-c2ccccc2)c1C(C)C	0%	8%	13%	18%	6%	0%	–	–	–	–
CCc1c(CC(N)=O)nn(-c2ccccc2)c1-c1ccccc1	16%	29%	52%	18%	39%	12%	–	–	–	–
CC(C)Nc1cccnc1N1CCN(C(=O)c2cc3cc(NS(C)(=O)=O)ccc3[nH]2)CC1 [DELAVIRDINE MESYLATE]	–	–	–	–	–	–	> 10000 nM	0.1 nM	–	–
CCc1c(CC(=O)NC)nn(-c2ccccc2)c1-c1ccccc1	6%	8%	12%	3%	7%	1%	–	–	–	–
CNC(=O)c1c(C)nn(-c2ccccc2)c1-c1ccccc1	15%	0%	0%	7%	3%	5%	–	–	–	–
Cc1nn(-c2ccccc2)c(-c2ccccc2)c1C(=O)O	0%	1%	4%	0%	1%	4%	–	–	–	–
COCc1c(C)nn(-c2ccccc2)c1-c1ccccc1	0%	18%	50%	0%	14%	0%	–	–	–	–
CCc1c(CC(=O)OC)nn(-c2ccccc2)c1-c1ccccc1	21%	41%	55%	20%	34%	5%	–	–	–	–
